Assay results from ChEMBL document CHEMBL4364276, “Discovery of 4-phenyl-2H-benzo[b][1,4]oxazin-3(4H)-one derivatives as potent and orally active PI3K/mTOR dual inhibitors” (Eur J Med Chem, 2019).

Columns and labels:
[1] = molecular target: Mitogen-activated protein kinase kinase kinase 8 (Homo sapiens) (UniProt P41279); test: Inhibition of human COT1 at 100 nM using MEK1 as substrate by [gamma-33P]-ATP assay
[2] = molecular target: Aurora kinase C (Homo sapiens) (UniProt Q9UQB9); test: Inhibition of human Aurora C at 100 nM using [H-LRRASLG] as substrate by [gamma-33P]-ATP assay
Sequence of Aurora kinase C (Homo sapiens) (Q9UQB9 whole entry): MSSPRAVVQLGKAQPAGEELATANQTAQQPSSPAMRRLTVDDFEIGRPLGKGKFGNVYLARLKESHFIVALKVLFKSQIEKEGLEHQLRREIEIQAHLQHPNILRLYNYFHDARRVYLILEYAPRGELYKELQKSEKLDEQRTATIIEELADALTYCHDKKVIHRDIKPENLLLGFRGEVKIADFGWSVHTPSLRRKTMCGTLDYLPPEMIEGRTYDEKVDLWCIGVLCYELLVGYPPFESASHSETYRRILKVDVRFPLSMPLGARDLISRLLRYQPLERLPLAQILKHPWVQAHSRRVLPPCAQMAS

[3] = molecular target: Serine/threonine-protein kinase LATS2 (Homo sapiens) (UniProt Q9NRM7); test: Inhibition of human LATS2 at 100 nM using KKRNRRLSVA as substrate by [gamma-33P]-ATP assay
[4] = molecular target: Inactive tyrosine-protein kinase PEAK1 (Homo sapiens) (UniProt Q9H792); test: Inhibition of human PEAK1 at 100 nM using MBP as substrate by [gamma-33P]-ATP assay
[5] = molecular target: Serine/threonine-protein kinase pim-2 (Homo sapiens) (UniProt Q9P1W9); test: Inhibition of human PIM2 at 100 nM using RSRHSSYPAGT as substrate by [gamma-33P]-ATP assay
Sequence of Serine/threonine-protein kinase pim-2 (Homo sapiens) (Q9P1W9 whole entry, looked up): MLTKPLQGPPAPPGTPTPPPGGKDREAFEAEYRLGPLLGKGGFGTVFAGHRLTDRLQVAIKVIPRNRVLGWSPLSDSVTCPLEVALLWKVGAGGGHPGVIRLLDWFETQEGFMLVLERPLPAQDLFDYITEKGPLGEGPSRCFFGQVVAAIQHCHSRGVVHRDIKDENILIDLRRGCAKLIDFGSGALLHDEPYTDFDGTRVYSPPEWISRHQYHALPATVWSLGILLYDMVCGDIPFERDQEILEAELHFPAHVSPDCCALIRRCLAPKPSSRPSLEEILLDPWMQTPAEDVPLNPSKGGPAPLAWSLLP

[6] = molecular target: Serine/threonine-protein kinase PAK 6 (Homo sapiens) (UniProt Q9NQU5); test: Inhibition of human PAK6 at 100 nM using RRRLSFAEPG as substrate by [gamma-33P]-ATP assay
[7] = molecular target: Cyclin-dependent kinase 5/CDK5 activator 1 (Homo sapiens) (UniProt Q00535+Q15078); test: Inhibition of human CDK5/p35 at 100 nM using histone H1 as substrate by [gamma-33P]-ATP assay; type: protein-complex assay
[8] = molecular target: Activin receptor type-1B (Homo sapiens) (UniProt P36896); test: Inhibition of human ALK4 at 100 nM using casein as substrate by [gamma-33P]-ATP assay
[9] = molecular target: Mitogen-activated protein kinase kinase kinase 11 (Homo sapiens) (UniProt Q16584); test: Inhibition of human MLK3 at 100 nM using MBP as substrate by [gamma-33P]-ATP assay
[10] = molecular target: Calcium/calmodulin-dependent protein kinase type 1 (Homo sapiens) (UniProt Q14012); test: Inhibition of human CAMK1A at 100 nM using KKALRRQETVDAL as substrate by [gamma-33P]-ATP assay
[11] = molecular target: Activated CDC42 kinase 1 (Homo sapiens) (UniProt Q07912); test: Inhibition of human ACK1 at 100 nM using EAIYAAPFAKKK as substrate by [gamma-33P]-ATP assay
[12] = molecular target: Maternal embryonic leucine zipper kinase (Homo sapiens) (UniProt Q14680); test: Inhibition of human MELK at 100 nM using KKLNRTLSFAEPG as substrate by [gamma-33P]-ATP assay
Sequence of Maternal embryonic leucine zipper kinase (Homo sapiens) (Q14680 whole entry, looked up): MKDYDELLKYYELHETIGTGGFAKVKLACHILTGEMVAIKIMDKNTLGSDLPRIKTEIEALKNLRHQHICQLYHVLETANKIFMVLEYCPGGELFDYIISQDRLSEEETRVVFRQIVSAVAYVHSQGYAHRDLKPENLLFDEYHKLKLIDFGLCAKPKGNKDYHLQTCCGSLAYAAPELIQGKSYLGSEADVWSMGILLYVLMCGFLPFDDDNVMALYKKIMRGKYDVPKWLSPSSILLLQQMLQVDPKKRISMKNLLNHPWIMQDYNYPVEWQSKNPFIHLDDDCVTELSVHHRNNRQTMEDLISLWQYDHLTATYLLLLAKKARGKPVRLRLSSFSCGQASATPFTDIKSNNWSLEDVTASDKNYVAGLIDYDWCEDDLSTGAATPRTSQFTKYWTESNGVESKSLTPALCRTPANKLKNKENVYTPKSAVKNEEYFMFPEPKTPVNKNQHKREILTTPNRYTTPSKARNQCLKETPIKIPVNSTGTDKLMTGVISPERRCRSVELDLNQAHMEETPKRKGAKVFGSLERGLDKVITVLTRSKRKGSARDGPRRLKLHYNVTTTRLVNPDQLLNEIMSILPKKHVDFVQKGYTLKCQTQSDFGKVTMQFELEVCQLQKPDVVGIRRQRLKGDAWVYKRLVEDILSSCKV

[13] = molecular target: Protein kinase C zeta type (Homo sapiens) (UniProt Q05513); test: Inhibition of human PKCzeta at 100 nM using ERMRPRKRQGSVRRRV as substrate by [gamma-33P]-ATP assay
Sequence of Protein kinase C zeta type (Homo sapiens) (Q05513 whole entry): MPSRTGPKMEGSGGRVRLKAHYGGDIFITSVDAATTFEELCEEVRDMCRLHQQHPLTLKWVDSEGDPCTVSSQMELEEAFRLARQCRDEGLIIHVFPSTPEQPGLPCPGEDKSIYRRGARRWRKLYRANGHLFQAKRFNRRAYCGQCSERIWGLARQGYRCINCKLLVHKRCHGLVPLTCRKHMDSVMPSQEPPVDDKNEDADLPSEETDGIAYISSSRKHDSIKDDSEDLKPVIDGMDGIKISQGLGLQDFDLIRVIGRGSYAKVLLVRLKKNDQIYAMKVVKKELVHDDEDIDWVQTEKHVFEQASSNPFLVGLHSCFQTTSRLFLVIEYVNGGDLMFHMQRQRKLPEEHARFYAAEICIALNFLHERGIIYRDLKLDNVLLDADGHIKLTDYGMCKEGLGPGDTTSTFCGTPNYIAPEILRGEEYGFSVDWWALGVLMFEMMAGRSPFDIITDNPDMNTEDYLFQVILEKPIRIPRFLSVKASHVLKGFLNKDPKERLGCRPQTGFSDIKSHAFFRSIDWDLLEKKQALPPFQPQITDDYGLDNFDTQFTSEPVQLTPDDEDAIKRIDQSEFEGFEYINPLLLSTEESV

[14] = molecular target: Serine/threonine-protein kinase DCLK1 (Homo sapiens) (UniProt O15075); test: Inhibition of human DCAMKL1 at 100 nM using KKLNRTLSFAEPG as substrate by [gamma-33P]-ATP assay
[15] = molecular target: Serine/threonine-protein kinase STK11 (Homo sapiens) (UniProt Q15831); test: Inhibition of human LKB1 at 100 nM using LSNLYHQGKFLQTFCGSPLYRRR as substrate by [gamma-33P]-ATP assay
[16] = molecular target: Serine/threonine-protein kinase WNK1 (Homo sapiens) (UniProt Q9H4A3); test: Inhibition of human WNK1 at 100 nM using MBP as substrate by [gamma-33P]-ATP assay
[17] = molecular target: Tyrosine-protein kinase Fer (Homo sapiens) (UniProt P16591); test: Inhibition of human FER at 100 nM using poly[Glu:Tyr] (4:1) as substrate by [gamma-33P]-ATP assay
[18] = molecular target: G protein-coupled receptor kinase 4 (Homo sapiens) (UniProt P32298); test: Inhibition of human GRK4 at 100 nM using casein as substrate by [gamma-33P]-ATP assay
Sequence of G protein-coupled receptor kinase 4 (Homo sapiens) (P32298 whole entry, looked up): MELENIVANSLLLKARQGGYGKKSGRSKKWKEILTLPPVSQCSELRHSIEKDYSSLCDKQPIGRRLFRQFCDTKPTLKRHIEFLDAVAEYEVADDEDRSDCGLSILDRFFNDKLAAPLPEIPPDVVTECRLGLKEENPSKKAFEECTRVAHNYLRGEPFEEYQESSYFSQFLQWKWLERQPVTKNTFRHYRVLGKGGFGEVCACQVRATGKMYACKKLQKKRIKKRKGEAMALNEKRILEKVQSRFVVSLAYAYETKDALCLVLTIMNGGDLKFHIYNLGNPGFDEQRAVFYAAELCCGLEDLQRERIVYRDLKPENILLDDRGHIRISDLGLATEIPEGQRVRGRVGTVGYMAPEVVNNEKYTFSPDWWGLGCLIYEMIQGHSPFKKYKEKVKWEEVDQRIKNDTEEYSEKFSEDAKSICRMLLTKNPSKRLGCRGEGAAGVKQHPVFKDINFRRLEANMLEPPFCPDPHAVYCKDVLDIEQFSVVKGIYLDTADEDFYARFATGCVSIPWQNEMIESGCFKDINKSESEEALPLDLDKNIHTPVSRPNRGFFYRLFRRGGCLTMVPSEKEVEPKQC

[19] = molecular target: Tyrosine-protein kinase ZAP-70 (Homo sapiens) (UniProt P43403); test: Inhibition of human ZAP70 at 100 nM using poly[Glu:Tyr] (4:1) as substrate by [gamma-33P]-ATP assay
A549 = test: Antitumor activity against human A549 cells xenografted in BALB/c nude mouse assessed as tumor growth inhibition at 40 mg/kg, ig administered for 30 days measured every 3 days during compound dosing relative to control; type: functional; details: A549, po, read-out: TGI
[20] = molecular target: Casein kinase I isoform epsilon (Homo sapiens) (UniProt P49674); test: Inhibition of human CK1E at 100 nM using KRRRAL[pS]VASLPGL as substrate by [gamma-33P]-ATP assay
[21] = molecular target: Non-receptor tyrosine-protein kinase TYK2 (Homo sapiens) (UniProt P29597); test: Inhibition of human TYK2 at 100 nM using KKSRGDYMTMQIG as substrate by [gamma-33P]-ATP assay
Sequence of Non-receptor tyrosine-protein kinase TYK2 (Homo sapiens) (P29597 whole entry): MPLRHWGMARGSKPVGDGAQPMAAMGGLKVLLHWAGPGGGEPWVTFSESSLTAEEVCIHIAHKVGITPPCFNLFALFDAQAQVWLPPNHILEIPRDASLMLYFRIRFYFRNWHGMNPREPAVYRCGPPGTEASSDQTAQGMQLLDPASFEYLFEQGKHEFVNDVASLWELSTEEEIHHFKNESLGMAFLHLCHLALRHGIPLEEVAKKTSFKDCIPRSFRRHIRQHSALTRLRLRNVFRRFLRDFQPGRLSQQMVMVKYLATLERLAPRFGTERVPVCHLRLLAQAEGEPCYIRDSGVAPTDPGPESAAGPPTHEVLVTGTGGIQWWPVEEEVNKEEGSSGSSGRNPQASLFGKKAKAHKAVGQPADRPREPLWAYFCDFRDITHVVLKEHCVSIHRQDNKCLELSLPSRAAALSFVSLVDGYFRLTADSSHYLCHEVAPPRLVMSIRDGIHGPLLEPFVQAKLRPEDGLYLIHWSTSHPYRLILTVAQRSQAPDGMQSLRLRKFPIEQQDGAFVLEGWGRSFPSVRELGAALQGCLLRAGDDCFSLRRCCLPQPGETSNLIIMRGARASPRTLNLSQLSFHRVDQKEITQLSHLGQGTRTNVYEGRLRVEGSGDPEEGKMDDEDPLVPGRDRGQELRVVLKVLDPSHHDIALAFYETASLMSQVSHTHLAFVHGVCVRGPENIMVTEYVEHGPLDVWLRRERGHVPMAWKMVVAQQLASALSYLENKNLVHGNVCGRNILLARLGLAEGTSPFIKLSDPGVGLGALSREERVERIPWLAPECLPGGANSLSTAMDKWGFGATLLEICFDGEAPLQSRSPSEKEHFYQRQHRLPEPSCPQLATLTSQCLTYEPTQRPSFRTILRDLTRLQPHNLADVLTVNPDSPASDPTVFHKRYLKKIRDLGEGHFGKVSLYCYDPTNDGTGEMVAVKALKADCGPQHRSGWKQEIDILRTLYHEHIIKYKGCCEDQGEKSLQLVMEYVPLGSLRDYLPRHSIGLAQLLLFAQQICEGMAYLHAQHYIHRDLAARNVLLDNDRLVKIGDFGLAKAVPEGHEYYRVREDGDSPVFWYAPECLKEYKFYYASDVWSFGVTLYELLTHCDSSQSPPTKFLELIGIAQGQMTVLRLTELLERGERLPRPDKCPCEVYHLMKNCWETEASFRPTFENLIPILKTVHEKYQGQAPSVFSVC

[22] = molecular target: CDK9/Cyclin-T2 (Homo sapiens) (UniProt P50750+O60583); test: Inhibition of human CDK9/cyclin-T2 at 100 nM using KTFCGTPEYLAPEVRREPRILSEEEQEMFRDFDYIADWC as substrate by [gamma-33P]-ATP assay; type: protein-complex assay
[23] = molecular target: Serine/threonine-protein kinase greatwall (Homo sapiens) (UniProt Q96GX5); test: Inhibition of human MASTL at 100 nM using ERK2 as substrate by [gamma-33P]-ATP assay
Sequence of Serine/threonine-protein kinase greatwall (Homo sapiens) (Q96GX5 whole entry, the tested form may be a part): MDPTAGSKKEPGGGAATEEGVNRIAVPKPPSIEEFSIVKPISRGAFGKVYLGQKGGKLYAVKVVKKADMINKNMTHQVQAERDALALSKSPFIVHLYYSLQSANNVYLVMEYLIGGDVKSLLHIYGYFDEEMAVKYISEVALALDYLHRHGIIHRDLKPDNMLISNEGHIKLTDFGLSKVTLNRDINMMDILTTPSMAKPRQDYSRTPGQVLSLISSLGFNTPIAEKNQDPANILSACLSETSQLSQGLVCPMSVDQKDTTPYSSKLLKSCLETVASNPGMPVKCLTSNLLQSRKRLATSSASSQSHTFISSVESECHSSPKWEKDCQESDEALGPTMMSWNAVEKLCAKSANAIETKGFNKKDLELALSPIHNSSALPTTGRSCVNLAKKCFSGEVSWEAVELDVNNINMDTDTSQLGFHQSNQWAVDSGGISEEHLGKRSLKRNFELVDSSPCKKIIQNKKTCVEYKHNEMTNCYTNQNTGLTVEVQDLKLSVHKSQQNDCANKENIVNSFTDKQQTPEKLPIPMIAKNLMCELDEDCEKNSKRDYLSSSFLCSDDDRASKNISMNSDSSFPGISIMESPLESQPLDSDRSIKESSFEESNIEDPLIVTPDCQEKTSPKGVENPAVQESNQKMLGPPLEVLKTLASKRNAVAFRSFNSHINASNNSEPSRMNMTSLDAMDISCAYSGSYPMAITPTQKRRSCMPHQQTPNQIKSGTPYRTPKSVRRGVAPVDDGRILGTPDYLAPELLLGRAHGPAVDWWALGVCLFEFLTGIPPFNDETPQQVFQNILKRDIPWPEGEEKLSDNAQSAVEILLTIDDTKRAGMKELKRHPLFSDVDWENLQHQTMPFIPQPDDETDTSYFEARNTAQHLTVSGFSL

[24] = molecular target: PI3-kinase p110-delta/p85-alpha (Homo sapiens, UniProt O00329); test: Inhibition of recombinant human full length N-terminal GST-tagged PI3Kdelta (1 to 1044 residues)/PIK3R1 (1 to 724 residues) expressed in baculovirus expression system using PIP2 as substrate incubated for 2 hrs by ADP-Glo assay
[25] = molecular target: Mitogen-activated protein kinase kinase kinase 1 (Homo sapiens) (UniProt Q13233); test: Inhibition of human MEKK1 at 100 nM using MBP as substrate by [gamma-33P]-ATP assay
[26] = molecular target: Serine/threonine-protein kinase Chk1 (Homo sapiens) (UniProt O14757); test: Inhibition of human CHK1 at 100 nM using KKKVSRSGLYRSPSMPENLNRPR as substrate by [gamma-33P]-ATP assay
[27] = molecular target: Serine/threonine-protein kinase 32C (Homo sapiens) (UniProt Q86UX6); test: Inhibition of human STK32C at 100 nM using MBP as substrate by [gamma-33P]-ATP assay
Sequence of Serine/threonine-protein kinase 32C (Homo sapiens) (Q86UX6 whole entry): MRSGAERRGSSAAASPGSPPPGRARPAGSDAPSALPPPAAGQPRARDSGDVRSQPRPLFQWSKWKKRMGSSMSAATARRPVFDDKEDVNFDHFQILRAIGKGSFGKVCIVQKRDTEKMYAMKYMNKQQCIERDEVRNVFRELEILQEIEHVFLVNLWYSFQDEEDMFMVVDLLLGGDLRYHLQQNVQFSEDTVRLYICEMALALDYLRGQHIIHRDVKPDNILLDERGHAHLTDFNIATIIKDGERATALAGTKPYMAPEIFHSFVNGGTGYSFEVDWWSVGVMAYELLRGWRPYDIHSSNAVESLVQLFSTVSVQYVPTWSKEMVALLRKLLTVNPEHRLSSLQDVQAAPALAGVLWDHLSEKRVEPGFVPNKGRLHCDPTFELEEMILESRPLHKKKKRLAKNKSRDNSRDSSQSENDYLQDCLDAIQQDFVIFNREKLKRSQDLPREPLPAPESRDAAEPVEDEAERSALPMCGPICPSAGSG

[28] = molecular target: Serine/threonine-protein kinase PLK3 (Homo sapiens) (UniProt Q9H4B4); test: Inhibition of human PLK3 at 100 nM using casein as substrate by [gamma-33P]-ATP assay
[29] = molecular target: Serine/threonine-protein kinase WNK2 (Homo sapiens) (UniProt Q9Y3S1); test: Inhibition of human WNK2 at 100 nM using MBP as substrate by [gamma-33P]-ATP assay

With `COc1ccc(N2C(=O)COc3ccc(-c4cnc(OC)c(NS(=O)(=O)c5ccc(F)cc5)c4)cc32)cc1` the inhibition [1] was 13%, the inhibition [2] was 10.1% and the inhibition [3] was 10.9%. It also gave an inhibition [4] of 4.84%, an inhibition [5] of 0.23% and an inhibition [6] of 2.76%. It also gave an inhibition [7] of 8.65%, an inhibition [8] of -0.05% and an inhibition [9] of 3.29%. For the same compound, the inhibition [10] was 1.42%, the inhibition [11] was 10.4% and the inhibition [12] was 9.78%. For the same compound, the inhibition [13] was 8.59%, the inhibition [14] was -5.81% and the inhibition [15] was -3.12%. The inhibition [16] was 13.9%, the inhibition [17] was 29.8% and the inhibition [18] was 1.46%. For the same compound, the inhibition [19] was -9.69%, the inhibition in vivo at 40 mg/kg (A549) was 70.2% and the inhibition [20] was 3.34%. It also gave an inhibition [21] of 11.3%, an inhibition [22] of 31.9% and an inhibition [23] of -1.96%. For the same compound, the IC50 [24] was 9.2 nM, the inhibition [25] was 6.33% and the inhibition [26] was 5.54%. For the same compound, the inhibition [27] was -6.39%, the inhibition [28] was -5.25% and the inhibition [29] was 2.82%.
